These results are taken from patent US6943268B2 (priority 1999, dated 2005).

The first assay relates to HIV. The note with it: chlorpromazine: at the concentration of Table I; cited from earlier work.
With `NC(=O)N=NC(N)=O` [Azodicarbonamide], the HIV infectivity entry was “blocks HIV infectivity,”.

For another assay, the system named is L-selectin on lymphocytes. Format: cell-based, human.
Settings: not given
On to `CSCC[C@H](NC=O)C(=O)N[C@@H](CC(C)C)C(=O)N[C@@H](Cc1ccccc1)C(=O)O` [fMLP, formyl-methionyl-leucyl-phenylalanine], for which the “response of lymphocytes (L-selectin shedding)” value is listed as “do not respond”.
As to `CCCCCCCCCCCCCC(=O)O[C@@H]1[C@@H](C)[C@@]2(O)[C@@H](C=C(CO)C[C@]3(O)C(=O)C(C)=C[C@@H]23)[C@@H]2C(C)(C)[C@]12OC(C)=O` [PMA], the “time for lymphocytes to shed L-selectin” value is listed as about 30 min.

Another assay has as its system Mac-1 (CD18/CD11b) on neutrophils. Format: cell-based, human.
Settings: not given
Consider `CSCC[C@H](NC=O)C(=O)N[C@@H](CC(C)C)C(=O)N[C@@H](Cc1ccccc1)C(=O)O` [fMLP, formyl-methionyl-leucyl-phenylalanine], for which the “increase of cell surface Mac-1 expression compared to the ice control” value is 3-10 fold.

For the next assay, the system named is L-selectin on neutrophils. Format: cell-based, human.
Settings: not given
Consider `O=C(O)c1cc(SSc2ccc([N+](=O)[O-])c(C(=O)O)c2)ccc1[N+](=O)[O-]` [DTNB, 5′,5′-dithio-bis(2-nitrobenzoic acid)], for which the “approximate concentration for 100% LOSS of L-selectin from cell surface” value is recorded as about 1 mM-.
Same read-out and setting: the same measure for `COc1ccc(C(c2ccc(OC)cc2)C(Cl)(Cl)Cl)cc1` [Methoxychlor]: about 50 uM-.
The same measure, in the same setting: to `[Cl][Cd][Cl]` [Cadmium (CdC12)] belongs about 1000 µM; to `CCN1C(=O)C=CC1=O` [N-ethylmaleimide], about 250 uM-; to `CN(C)C(=O)/N=N/C(=O)N(C)C` [Diamide], about 1 mM-.
On the same count and under the same terms, the same measure for `O=S(=O)(O)c1cc(N=C=S)ccc1C=Cc1ccc(N=C=S)cc1S(=O)(=O)O` [DIDS]: about 200 uM-; for Thioredoxin: about 50 ug/ml-; for `OO` [Hydrogen peroxide]: about 150 uM-.
Regarding `CN(C)CCCN1c2ccccc2Sc2ccc(Cl)cc21` [Chlorpromazine], the “approximate concentration for 100% LOSS of L-selectin from cell surface” value is given as about 50 mM- and the “effective concentrations for induction of L-selectin shedding” value was in the range of 10 to 50 µM.
For Protein Disulfide Isomerase, the “approximate concentration for 100% LOSS of L-selectin from cell surface” value was about 20 ug/ml-.
On the same count and under the same terms, to Thimerosal belongs about 500 um-; to `O=Ic1ccccc1C(=O)O` [Iodosobenzoate], about 1 mM-.
Consider `CSCC[C@H](NC=O)C(=O)N[C@@H](CC(C)C)C(=O)N[C@@H](Cc1ccccc1)C(=O)O` [fMLP, formyl-methionyl-leucyl-phenylalanine], for which the “cell surface L-selectin released” value is given as “at least 90%”.
For `O=[As]O[As]=O` (stereo not drawn) [Arsenic (As203)], the “approximate concentration for 100% LOSS of L-selectin from cell surface” value was about 50 µM.
On the same count and under the same terms, the same measure for `Clc1ccc(C(c2ccc(Cl)cc2)C(Cl)(Cl)Cl)cc1` [DDT]: about 50 uM-.
On the same count and under the same terms, the same measure for `Cc1c(CBr)n2c(CBr)c(C)c(=O)n2c1=O` [Dibromobimane bBBr, Dibromobimane]: about 100 um-; for `Cc1c(C)n2c(CBr)c(C)c(=O)n2c1=O` [Monobromobimane mBBr, Monobromobimane]: about 100 uM-.
As to `O=C(O)CI` [Iodoacetate IA, Iodoacetate], the “approximate concentration for 100% LOSS of L-selectin from cell surface” value is reported as about 300 uM-.
Same read-out and setting: to `NC(=O)CI` [Iodoacetamide] belongs about 10 mM-.
As for `NC(=O)N=NC(N)=O` [Azodicarbonamide], the “approximate concentration for 100% LOSS of L-selectin from cell surface” value was about 1 mM-.
On the same count and under the same terms, the same measure for `COc1cc(-c2ccc(-n3nc(-c4ccccc4)n[n+]3-c3ccc([N+](=O)[O-])cc3)c(OC)c2)ccc1-n1nc(-c2ccccc2)n[n+]1-c1ccc([N+](=O)[O-])cc1` [Nitroblue tetrazolium]: about 100 uM-.
In the case of `C1COCCO1` [Dioxane], the “induction of L-selectin shedding (in words)” value is “itself induces L-selectin release”.
In the case of `O=S(=O)(F)Cc1ccccc1` [PMSF], the “approximate concentration for 100% LOSS of L-selectin from cell surface” value is about 1 mM-.
On to `[O-2].[O-2].[O-2].[Sb+3].[Sb+3]` [Antimony (Sb203)], for which the “approximate concentration for 100% LOSS of L-selectin from cell surface” value was about 50 µM.
With `CCN(CC)C(=S)SSC(=S)N(CC)CC` [Disulfiram (Antabuse), Disulfiram], the “approximate concentration for 100% LOSS of L-selectin from cell surface” value was about 50 uM-.
